Experimental data reported in US20140127705A1, “METHOD FOR SCREENING SUBSTANCES HAVING WEIGHT-REGULATING ACTION” (priority 2011, published 2014).

Test system: 3T3-L1 cells
Assay: Induction of adipocyte differentiation in 3T3-L1 cells, Oil Red O staining
Type: cell-based
Conditions: 10 μM LS-102 added at induction of differentiation (IBMX, dexamethasone, insulin) and again at the medium change, DMSO control, microscope (FIG. 5)
Procedure: 3T3-L1 cells were cultured for 3 days after reaching confluence in DMEM (10% FBS, High Glucose). Differentiation was induced by adding 500 μM IBMX, 1 μM dexamethasone and 5 μg/ml of insulin. 10 μM LS-102 (synoviolin ubiquitination activity inhibitor) or DMSO were added at the same time. After culturing for 3 days, the medium was replaced with medium containing 4 μg/ml of insulin followed by the addition of 10 μM LS-102 or DMSO. After again culturing for 3 days, the medium was replaced with DMEM (10% FES, High Glucose) followed by additionally culturing for 3 days. With respect to siRNA, 200 pmol of siRNA Syno770 was introduced using Lipofectamine 2000 two days prior to inducing differentiation.
After washing the 3T3-L1 cells with PBS(−), the cells were fixed with 10% formalin. The cells were then washed with PBS(−) and transferred to 60% isopropanol. The cells were stained for 20 minutes with 18 mg/ml of Oil Red O/Isopropanol and then washed with 60% isopropanol and PBS(−) followed by observing with a microscope.

CCNCCN(CC)c1nc(Nc2ccc3ncoc3c2)nc(N[C@@H](C)C2CCCCC2)n1 [LI102]
number of differentiated adipocytes in comparison with the control: the number of differentiated adipocytes was lower in comparison with the control
